Source: PMC9525273 (Nature Communications, 2022)
Values joined by “and” are separate entries in the source; they are usually repeats but may differ in a detail not shown here. Equal entries are not always repeated. Where two headings read alike, the source gives them in different places.

How the values were obtained:
Test in all cases: P. falciparum proliferation assay (72 h, fluorescent DNA-intercalating dye)
Type in all cases: cell-based, Plasmodium falciparum
[1] = tested on: Dd2 parasites; conditions: for Parasite proliferation (% of no-cipargamin control), MEAN: MEAN of 16 experiments
Description: (§1) For experiments with all other parasites, the effects of compounds of interest on parasite proliferation was measured in 96-well plates containing serial dilutions of the compounds in culture medium, with a fluorescent DNA-intercalating dye used to detect surviving parasites. The assays were initiated with erythrocytes infected with predominantly ring-stage parasites, and the starting parasitaemia and haematocrit were both 1%.

[2] = tested on: Dd2-PfATP4^T418N,P990R parasites; conditions: for Parasite proliferation (% of no-cipargamin control), MEAN: MEAN of 16 experiments
Description: as §1

[3] = tested on: Dd2-Polδ parasites
Description: as §1

[4] = tested on: Dd2-Polδ-PfATP4^G358S parasites
Description: as §1

[5] = tested on: HCR1 parasites (highly cipargamin-resistant clone 1); conditions: for Parasite proliferation (% of no-cipargamin control), MEAN: MEAN of 16 experiments
Description: as §1

[6] = tested on: HCR2 parasites (highly cipargamin-resistant clone 2); conditions: for Parasite proliferation (% of no-cipargamin control), MEAN: MEAN of 16 experiments
Description: as §1

C[C@H]1Cc2c([nH]c3cc(Cl)c(F)cc23)[C@@]2(N1)C(=O)Nc1ccc(Cl)cc12 [Cipargamin]
Mean IC50 value ± SEM for growth inhibition ([1]; Dd2, Supplementary Table 1, Set 1): subnanomolar | Parasite proliferation (% of no-cipargamin control), MEAN ([1]; Dd2, [Cipargamin] 0.195312 nM): 100.9 % of no-cipargamin control | Parasite proliferation (% of no-cipargamin control), MEAN ([1]; Dd2, [Cipargamin] 0.390625 nM): 94.5 % of no-cipargamin control | Parasite proliferation (% of no-cipargamin control), MEAN ([1]; Dd2, [Cipargamin] 0.78125 nM): 30.2 % of no-cipargamin control | Parasite proliferation (% of no-cipargamin control), MEAN ([1]; Dd2, [Cipargamin] 1.5625 nM): 3.4 % of no-cipargamin control | Parasite proliferation (% of no-cipargamin control), MEAN ([1]; Dd2, [Cipargamin] 3.125 nM): 0.3 % of no-cipargamin control | Parasite proliferation (% of no-cipargamin control), MEAN ([1]; Dd2, [Cipargamin] 6.25 nM): 0.5 % of no-cipargamin control | Parasite proliferation (% of no-cipargamin control), MEAN ([1]; Dd2, [Cipargamin] 25 nM): 0.0247 % of no-cipargamin control | IC50 ([1]; Plasmodium falciparum, DD2, read-out: IC50 values, MEAN, Dd2, MEAN, source data of Fig. 2): 0.68 nM | Parasite proliferation (% of no-cipargamin control), MEAN ([2]; Dd2-PfATP4T418N,P990R, [Cipargamin] 0.195312 nM): 100.7 % of no-cipargamin control | Parasite proliferation (% of no-cipargamin control), MEAN ([2]; Dd2-PfATP4T418N,P990R, [Cipargamin] 0.390625 nM): 102.0 % of no-cipargamin control | Parasite proliferation (% of no-cipargamin control), MEAN ([2]; Dd2-PfATP4T418N,P990R, [Cipargamin] 0.78125 nM): 99.8 % of no-cipargamin control | Parasite proliferation (% of no-cipargamin control), MEAN ([2]; Dd2-PfATP4T418N,P990R, [Cipargamin] 1.5625 nM): 99.9 % of no-cipargamin control | Parasite proliferation (% of no-cipargamin control), MEAN ([2]; Dd2-PfATP4T418N,P990R, [Cipargamin] 3.125 nM): 94.7 % of no-cipargamin control | Parasite proliferation (% of no-cipargamin control), MEAN ([2]; Dd2-PfATP4T418N,P990R, [Cipargamin] 6.25 nM): 78.8 % of no-cipargamin control | Parasite proliferation (% of no-cipargamin control), MEAN ([2]; Dd2-PfATP4T418N,P990R, [Cipargamin] 25 nM): 1.2 % of no-cipargamin control | IC50 ([2]; Dd2-PfATP4T418N,P990R, single experiments, source data of Fig. 2 (nM in Supplementary Table 1), read-out: IC50 values): 7.9 nM | IC50 ([2]; Plasmodium falciparum, DD2, Dd2-PfATP4T418N,P990R, MEAN, source data of Fig. 2, read-out: IC50 values, MEAN): 9.17 nM | IC50 ([2]; Plasmodium falciparum, DD2, Dd2-PfATP4T418N,P990R, Supplementary Table 1, Set 1, read-out: Mean IC50 value ± SEM for growth inhibition): < 10 nM | IC50 ([3]; Dd2-Polδ, single experiments, source data of Fig. 2 (nM in Supplementary Table 1), read-out: IC50 values): 1.4 nM | IC50 ([3]; Plasmodium falciparum, DD2, Dd2-Polδ, MEAN, source data of Fig. 2, read-out: IC50 values, MEAN): 1.43 nM | IC50 ([3]; Plasmodium falciparum, DD2, parental Dd2-Polδ, paired with MMV665949-selected Culture 1, n = 3, read-out: IC50 value): 0.57 ± 0.02 nM | IC50 ([4]; Dd2-Polδ-PfATP4G358S, single experiments, source data of Fig. 2 (nM in Supplementary Table 1), read-out: IC50 values): 1140 nM and 1420 nM and 1580 nM and 1640 nM and 1670 nM and 1510 nM | IC50 ([4]; Plasmodium falciparum, DD2, Dd2-Polδ-PfATP4G358S, MEAN, source data of Fig. 2, read-out: IC50 values, MEAN): 1420 nM | IC50 ([4]; Plasmodium falciparum, DD2, Dd2-Polδ-PfATP4G358S, single experiments, source data of Fig. 2 (nM in Supplementary Table 1), read-out: IC50 values): 980 nM | Parasite proliferation (% of no-cipargamin control), MEAN ([5]; HCR1, [Cipargamin] 100 nM): 98.5 % of no-cipargamin control | Parasite proliferation (% of no-cipargamin control) ([5]; HCR1, [Cipargamin] 100 nM, single experiments 1-16): 100.9 % of no-cipargamin control and 100.0 % of no-cipargamin control and 87.1 % of no-cipargamin control and 88.2 % of no-cipargamin control | Parasite proliferation (% of no-cipargamin control), MEAN ([5]; HCR1, [Cipargamin] 200 nM): 94.4 % of no-cipargamin control | Parasite proliferation (% of no-cipargamin control), MEAN ([5]; HCR1, [Cipargamin] 400 nM): 91.8 % of no-cipargamin control | Parasite proliferation (% of no-cipargamin control), MEAN ([5]; HCR1, [Cipargamin] 800 nM): 83.6 % of no-cipargamin control | Parasite proliferation (% of no-cipargamin control), MEAN ([5]; HCR1, [Cipargamin] 1600 nM): 71.5 % of no-cipargamin control | Parasite proliferation (% of no-cipargamin control), MEAN ([5]; HCR1, [Cipargamin] 3200 nM): 44.9 % of no-cipargamin control | Parasite proliferation (% of no-cipargamin control), MEAN ([5]; HCR1, [Cipargamin] 6400 nM): 13.3 % of no-cipargamin control | Parasite proliferation (% of no-cipargamin control), MEAN ([5]; HCR1, [Cipargamin] 25600 nM): -0.564 % of no-cipargamin control | IC50 ([5]; Plasmodium falciparum, HCR1, MEAN, source data of Fig. 2, read-out: IC50 values, MEAN): 2840 nM | IC50 ([5]; Plasmodium falciparum, read-out: Mean IC50 value ± SEM for growth inhibition, HCR1, Supplementary Table 1, Set 1): 2840 ± 190 nM | Parasite proliferation (% of no-cipargamin control), MEAN ([6]; HCR2, [Cipargamin] 100 nM): 99.1 % of no-cipargamin control | Parasite proliferation (% of no-cipargamin control) ([6]; HCR2, [Cipargamin] 100 nM, single experiments 1-16): 100.1 % of no-cipargamin control and 100.0 % of no-cipargamin control and 96.3 % of no-cipargamin control and 89.0 % of no-cipargamin control | Parasite proliferation (% of no-cipargamin control), MEAN ([6]; HCR2, [Cipargamin] 200 nM): 93.8 % of no-cipargamin control | Parasite proliferation (% of no-cipargamin control), MEAN ([6]; HCR2, [Cipargamin] 400 nM): 90.7 % of no-cipargamin control | Parasite proliferation (% of no-cipargamin control), MEAN ([6]; HCR2, [Cipargamin] 800 nM): 85.4 % of no-cipargamin control | Parasite proliferation (% of no-cipargamin control), MEAN ([6]; HCR2, [Cipargamin] 1600 nM): 71.9 % of no-cipargamin control | Parasite proliferation (% of no-cipargamin control), MEAN ([6]; HCR2, [Cipargamin] 3200 nM): 46.7 % of no-cipargamin control | Parasite proliferation (% of no-cipargamin control), MEAN ([6]; HCR2, [Cipargamin] 6400 nM): 13.6 % of no-cipargamin control | Parasite proliferation (% of no-cipargamin control), MEAN ([6]; HCR2, [Cipargamin] 25600 nM): -0.466 % of no-cipargamin control | IC50 ([6]; Plasmodium falciparum, HCR2, MEAN, source data of Fig. 2, read-out: IC50 values, MEAN): 2920 nM | IC50 ([6]; Plasmodium falciparum, read-out: Mean IC50 value ± SEM for growth inhibition, HCR2, Supplementary Table 1, Set 1): 2920 ± 200 nM

C[C@H]1[C@@H](O)O[C@@H]2O[C@@]3(C)CC[C@H]4[C@H](C)CC[C@@H]1[C@@]24OO3 [Dihydroartemisinin]
IC50 ([1]; Plasmodium falciparum, DD2, read-out: Dihydroartemisinin IC50 values, Dd2, MEAN): 2.17 nM | IC50 ([1]; Plasmodium falciparum, DD2, read-out: Dihydroartemisinin IC50 values, Dd2, single experiments): 1.79 nM | IC50 ([1]; read-out: Dihydroartemisinin IC50 values, Dd2, single experiments): 1.66 nM and 2.87 nM and 2.36 nM | IC50 ([2]; Plasmodium falciparum, DD2, read-out: Dihydroartemisinin IC50 values, Dd2-PfATP4T418N,P990R, MEAN): 2.44 nM | IC50 ([2]; Plasmodium falciparum, DD2, read-out: Dihydroartemisinin IC50 values, Dd2-PfATP4T418N,P990R, single experiments): 2.1 nM | IC50 ([2]; read-out: Dihydroartemisinin IC50 values, Dd2-PfATP4T418N,P990R, single experiments): 2.01 nM and 2.76 nM and 2.9 nM | IC50 ([3]; Plasmodium falciparum, DD2, read-out: Dihydroartemisinin IC50 values, Dd2-Polδ, MEAN): 2.15 nM | IC50 ([3]; Plasmodium falciparum, DD2, read-out: Dihydroartemisinin IC50 values, Dd2-Polδ, single experiments): 2.08 nM | IC50 ([3]; read-out: Dihydroartemisinin IC50 values, Dd2-Polδ, single experiments): 2.37 nM and 1.58 nM and 2.55 nM | IC50 ([4]; Plasmodium falciparum, DD2, read-out: Dihydroartemisinin IC50 values, Dd2-Polδ-PfATP4G358S, MEAN): 2.58 nM | IC50 ([4]; Plasmodium falciparum, DD2, read-out: Dihydroartemisinin IC50 values, Dd2-Polδ-PfATP4G358S, single experiments): 2.3 nM | IC50 ([4]; read-out: Dihydroartemisinin IC50 values, Dd2-Polδ-PfATP4G358S, single experiments): 2.08 nM and 3.3 nM and 2.66 nM | IC50 ([5]; Plasmodium falciparum, read-out: Dihydroartemisinin IC50 values, HCR1, MEAN): 1.55 nM | IC50 ([5]; read-out: Dihydroartemisinin IC50 values, HCR1, single experiments): 1.37 nM and 2.01 nM and 1.76 nM | IC50 ([6]; Plasmodium falciparum, read-out: Dihydroartemisinin IC50 values, HCR2, MEAN): 1.51 nM | IC50 ([6]; Plasmodium falciparum, read-out: Dihydroartemisinin IC50 values, HCR2, single experiments): 1.46 nM | IC50 ([6]; read-out: Dihydroartemisinin IC50 values, HCR2, single experiments): 1.62 nM and 1.77 nM and 1.19 nM
